What was measured:
[1] = system: pain response in kaolin arthritis; test: arthritis with kaolin (analgesic activity) in rats; format: in vivo; conditions: rat, oral, pain response 5 hours 30 minutes after administration, n=10
Protocol: The analgesic activity is evaluated in rats by the test of arthritis with kaolin. Thirty minutes after intra-articular administration of an aqueous 10% suspension of kaolin, the product is administered orally at a rate of 1 ml/100 g (n=10 animals per dose).

COX-1 = test: inhibition of COX-1 enzymatic activity (PGE2 by EIA); format: biochemical; conditions: purified enzyme from ram seminal vesicles, mean ± standard deviation, 4 determinations
Protocol: (§1) Inhibition Of The COX-1 and COX-2 Enzymatic Activities The molecule studied is preincubated for 10 minutes at 25° C. with 2 U of COX-1 (purified enzyme from ram seminal vesicles) or 1 U of COX-2 (purified enzyme from ewe placenta). Arachidonic acid (6 μM for COX-1, 4, μM for COX-2) is added to the reaction medium and incubation is carried out for 5 minutes at 25° C. When incubation has ended, the enzymatic reaction is stopped by the addition of 1 N HCl and the PGE2 produced is determined by EIA. The results are expressed as the percentage inhibition of the COX-1 and COX-2 enzymatic activities and correspond to mean (±) standard deviations from the average of 4 determinations.

COX-2 = test: inhibition of COX-2 enzymatic activity (PGE2 by EIA); format: biochemical; conditions: purified enzyme from ewe placenta, mean ± standard deviation, 4 determinations
Protocol: as §1

[2] = system: carrageenan-induced paw oedema; test: oedema with carrageenan (anti-inflammatory activity) in rats; format: in vivo; conditions: rat, oral, oedema volume 3 hours after carrageenan, n=6
Protocol: Anti-Inflammatory Activity
The anti-inflammatory activity is evaluated in rats by the test of oedema with carrageenan. The product is administered orally at a rate of 2.5 ml/100 g (n=6 animals per dose) 2 hours 30 minutes after a water overload taken orally (2.5 ml/ 100 g). One hour after administration of the product, the oedema is induced by plantar subcutaneous injection of aqueous 2% carrageenan solution.

| SMILES | Analgesic activity % inhibition ([1]; 30 mg/kg) [%] | % inhibition of COX-1 activity (COX-1; 10^-5 M) [%] | % inhibition of COX-1 activity (COX-1; 10^-7 M) [%] | % inhibition of COX-2 activity (COX-2; 10^-5 M) [%] | % inhibition of COX-2 activity (COX-2; 10^-7 M) [%] | Anti-inflammatory activity % inhibition ([2]; 30 mg/kg) [%] | Analgesic activity % inhibition ([1]; 100 mg/kg) [%] | Anti-inflammatory activity % inhibition ([2]; 100 mg/kg) [%] |
| --- | --- | --- | --- | --- | --- | --- | --- | --- |
| CCOC(=O)/C(CCO)=C(/c1ccc(S(C)(=O)=O)cc1)c1cc(Cl)cc(Cl)c1 [Example 14, Ethyl (Z)-3-(3,5-dichlorophenyl)-3-(4-methanesulphonylphenyl)-2-(2-hydroxyethyl)prop-2-enoate] | 45.8 ± 10.9 | 0 ± 0 | 0 ± 0 | 80 ± 2 | 16 ± 9 | 28.9 ± 4.5 | – | – |
| CS(=O)(=O)c1ccc(/C(=C(\CCO)C(=O)[O-])c2ccc(Cl)c(Cl)c2)cc1.[Na+] [Example 27, Sodium (Z)-3-(3,4-dichlorophenyl)-3-(4-methanesulphonylphenyl)-2-(2-hydroxyethyl)prop-2-enoate] | – | – | – | – | – | – | 63.6 ± 13.2 | 32.4 ± 8.2 |

— patent US5972950A, “1,2-diarylmethylene derivatives, their methods of preparation and their uses in therapeutics” (Laboratories UPSA, priority 1996, dated 1999)
